Literature values in PubChem BioAssay AID1259409 (Chemical Carcinogenesis Research Information System (CCRIS), 2018).

Tested on: rodent chemically induced tumor inhibition, incidence and multiplicity
Test: CCRIS tumor inhibitor studies
Details: Dose [Inhibitor]: 0

Compound: CSC(=S)NCc1c[nH]c2ccccc12
- tumour outcome (control, treated, inhibition, significance) (Carcinogen: 7,12-DIMETHYLBENZ[A]ANTHRACENE, 57-97-6, 0.5% IN 0.2 ML ACETONE APPLIED 1 HR PRIOR TO PROMOTER DOSE 2/WK FOR 12 WK (STUDY DURATION: 90 D), Route [Inhibitor]: DERMAL, Species: MOUSE, Strain/Sex: CD-1/MALE, Target Tissue: Type of Lesion: SKIN: TUMOR, Dose [Carcinogen]: 50 UG IN 0.2 ML ACETONE ONCE, Promoter: 12-O-TETRADECANOYLPHORBOL-13-ACETATE, 16561-29-8): 95%, 65%, 32%, not significant
- tumour outcome (control, treated, inhibition, significance) (Carcinogen: 7,12-DIMETHYLBENZ[A]ANTHRACENE, 57-97-6, 1% IN 0.2 ML ACETONE APPLIED 1 HR PRIOR TO PROMOTER DOSE 2/WK FOR 12 WK (STUDY DURATION: 90 D), Route [Inhibitor]: DERMAL, Species: MOUSE, Strain/Sex: CD-1/MALE, Target Tissue: Type of Lesion: SKIN: TUMOR, Dose [Carcinogen]: 50 UG IN 0.2 ML ACETONE ONCE, Promoter: 12-O-TETRADECANOYLPHORBOL-13-ACETATE, 16561-29-8): 95%, 50%, 50%, p<0.03
- tumour outcome (control, treated, inhibition, significance) (Carcinogen: 7,12-DIMETHYLBENZ[A]ANTHRACENE, 57-97-6, 1% IN 0.2 ML ACETONE APPLIED 1 HR PRIOR TO PROMOTER DOSE 2/WK FOR 12 WK BEGINNING 5 D PRIOR TO CARCINOGEN DOSE (STUDY, Route [Inhibitor]: DERMAL, Species: MOUSE, Strain/Sex: CD-1/MALE, Target Tissue: Type of Lesion: SKIN: TUMOR, Dose [Carcinogen]: 50 UG IN 0.2 ML ACETONE ONCE, Promoter: 12-O-TETRADECANOYLPHORBOL-13-ACETATE, 16561-29-8): 95%, 55%, 42%, p<0.03

Compound: CCCCCCCCCCCCCCCCCCN
- tumour outcome (control, treated, inhibition, significance) (Carcinogen: 7,12-DIMETHYLBENZ[A]ANTHRACENE, 57-97-6, 0.01% IN 20% CORN OIL DIET BEGINNING 1 WK POST CARCINOGEN DOSE (STUDY DURATION: 17 WK), Route [Inhibitor]: ORAL, Species: RAT, Strain/Sex: SPRAGUE-DAWLEY/FEMALE, Target Tissue: Type of Lesion: MAMMARY GLAND: ADENOCARCINOMA, Dose [Carcinogen]: 5 MG IN 0.5 ML OLIVE OIL ONCE, Promoter: NONE USED): 57%, 57%, 0%, not significant
- tumour outcome (control, treated, inhibition, significance) (Carcinogen: 7,12-DIMETHYLBENZ[A]ANTHRACENE, 57-97-6, 0.1% IN 20% CORN OIL DIET BEGINNING 1 WK POST CARCINOGEN DOSE (STUDY DURATION: 17 WK), Route [Inhibitor]: ORAL, Species: RAT, Strain/Sex: SPRAGUE-DAWLEY/FEMALE, Target Tissue: Type of Lesion: MAMMARY GLAND: ADENOCARCINOMA, Dose [Carcinogen]: 5 MG IN 0.5 ML OLIVE OIL ONCE, Promoter: NONE USED): 57%, 14%, 75%, p<0.001

Compound: O=C(O)[C@H](O)[C@@H](O)[C@H](O)[C@H](O)CO
- tumour outcome (control, treated, inhibition, significance) (Carcinogen: 1,2-DIMETHYLHYDRAZINE DIHYDROCHLORIDE, 306-37-6, 1% IN DIET FOR 8 MO BEGINNING 2 WK POST CARCINOGEN (STUDY DURATION: 8 MO, 2 WK), Route [Inhibitor]: ORAL, Species: RAT, Strain/Sex: F344/MALE, Target Tissue: Type of Lesion: COLON: TUMOR, Dose [Carcinogen]: 200 MG/KG IN 0.9% NACL ONCE): 15/27 (56%), 17/28 (61%), -9%, not significant
- tumour outcome (control, treated, inhibition, significance) (Carcinogen: 1,2-DIMETHYLHYDRAZINE DIHYDROCHLORIDE, 306-37-6, 2% IN DIET FOR 8 MO BEGINNING 2 WK POST CARCINOGEN (STUDY DURATION: 8 MO, 2 WK), Route [Inhibitor]: ORAL, Species: RAT, Strain/Sex: F344/MALE, Target Tissue: Type of Lesion: COLON: TUMOR, Dose [Carcinogen]: 200 MG/KG IN 0.9% NACL ONCE): 15/27 (56%), 7/17 (41%), 27%, not significant

Compound: COc1ccc(-c2coc3cc(O)cc(O)c3c2=O)cc1
- tumour outcome (control, treated, inhibition, significance) (Carcinogen: BENZO[A]PYRENE, 50-32-8, 0.125 MG IN 0.1 ML DMSO 3/WK FOR 6 WK AFTER WEANING (STUDY DURATION: 9 WK), Route [Inhibitor]: INTRAPERITONEAL, Species: MOUSE, Strain/Sex: SWISS WEBSTER/MALE, FEMALE, Target Tissue: Type of Lesion: LUNG: ADENOMA, Dose [Carcinogen]: 0.5 MG IN AQUEOUS GELATIN WITHIN 24 HRS AFTER BIRTH, Promoter: NONE USED): 20/35 (57%), 2/16 (13%), 77%, p<0.01
- tumour outcome (control, treated, inhibition, significance) (Carcinogen: BENZO[A]PYRENE, 50-32-8, 0.125 MG IN 0.1 ML DMSO 3/WK FOR 6 WK AFTER WEANING (STUDY DURATION: 9 WK), Route [Inhibitor]: INTRAPERITONEAL, Species: MOUSE, Strain/Sex: SWISS/FEMALE, Target Tissue: Type of Lesion: LUNG: ADENOMA, Dose [Carcinogen]: 0.5 MG IN 1% AQUEOUS GELATIN TO 24 HR OLD MICE ONCE, Promoter: NONE USED): 11/19 (58%), 2/16 (13%), 78%, p<0.01
- tumour outcome (control, treated, inhibition, significance) (Carcinogen: BENZO[A]PYRENE, 50-32-8, 500 MG/KG IN 0.1 ML DMSO 2 D PRIOR TO EACH CARCINOGEN DOSE 1/WK FOR 4 WK (STUDY DURATION: 30 WK), Route [Inhibitor]: GAVAGE, Species: MOUSE, Strain/Sex: SWISS/FEMALE, Target Tissue: Type of Lesion: FORESTOMACH: CARCINOMA, Dose [Carcinogen]: 3 MG IN 0.2 ML CORN OIL 1/WK FOR 4 WK, Promoter: NONE USED): 13/26 (50%), 4/24 (17%), 66%, p<0.02
- tumour outcome (control, treated, inhibition, significance) (Carcinogen: BENZO[A]PYRENE, 50-32-8, 500 MG/KG IN 0.1 ML DMSO 2 D PRIOR TO EACH CARCINOGEN DOSE 1/WK FOR 4 WK (STUDY DURATION: 30 WK), Route [Inhibitor]: GAVAGE, Species: MOUSE, Strain/Sex: SWISS/FEMALE, Target Tissue: Type of Lesion: FORESTOMACH: PAPILLOMA, Dose [Carcinogen]: 3 MG IN 0.2 ML CORN OIL 1/WK FOR 4 WK, Promoter: NONE USED): 25/26 (96%), 21/24 (88%), 8%, not calculated
- tumour outcome (control, treated, inhibition, significance) (Carcinogen: BENZO[A]PYRENE, 50-32-8, 500 MG/KG IN 0.1 ML DMSO 2 D PRIOR TO EACH CARCINOGEN DOSE 1/WK FOR 4 WK (STUDY DURATION: 30 WK), Route [Inhibitor]: GAVAGE, Species: MOUSE, Strain/Sex: SWISS/FEMALE, Target Tissue: Type of Lesion: LUNG: ADENOMA, Dose [Carcinogen]: 3 MG IN 0.2 ML CORN OIL 1/WK FOR 4/WK, Promoter: NONE USED): 24/26 (92%), 20/24 (83%), 10%, not calculated
- tumour outcome (control, treated, inhibition, significance) (Carcinogen: N-METHYL-N-NITROSOUREA, 684-93-5, 10 MG/KG IN DIET FOR DURATION OF STUDY BEGINNING POST CARCINOGEN DOSE (STUDY DURATION: 18 WK), Route [Inhibitor]: ORAL, Species: RAT, Strain/Sex: SPRAGUE-DAWLEY/FEMALE, Target Tissue: Type of Lesion: MAMMARY GLAND: TUMOR, Dose [Carcinogen]: 40 MG/KG BW ONCE, Promoter: NONE USED): 16/20 (80%), 11/19 (58%), 28%, not calculated
- tumour outcome (control, treated, inhibition, significance) (Carcinogen: N-METHYL-N-NITROSOUREA, 684-93-5, 50 MG/KG IN DIET FOR DURATION OF STUDY BEGINNING POST CARCINOGEN DOSE (STUDY DURATION: 18 WK), Route [Inhibitor]: ORAL, Species: RAT, Strain/Sex: SPRAGUE-DAWLEY/FEMALE, Target Tissue: Type of Lesion: MAMMARY GLAND: TUMOR, Dose [Carcinogen]: 40 MG/KG BW ONCE, Promoter: NONE USED): 16/20 (80%), 6/19 (32%), 60%, p<0.01

Compound: Ac-SDAAVDTSSEITTKDLKEKKEVVEEAEN-OH
- tumour outcome (control, treated, inhibition, significance) (Carcinogen: N-BUTYL-N-(4-HYDROXYBUTYL)NITROSAMINE, 3817-11-6, 0.3 UG IN 100 µL SALINE INJECTED INTO RIGHT THIGH 2/WK FOR 20 WK (STUDY DURATION: 20 WK), Route [Inhibitor]: INTRAMUSCULAR, Species: MOUSE, Strain/Sex: C3H/HEJ/FEMALE, Target Tissue: Type of Lesion: BLADDER: CARCINOMA, Dose [Carcinogen]: 0.05% (W/V) SOLUTION IN DRINKING WATER WITH 0.001% (W/V) TWEEN 80 FOR 20 WK, Promoter: NONE USED): 6/11 (55%), 5/12 (42%), 24%, not significant
- tumour outcome (control, treated, inhibition, significance) (Carcinogen: N-BUTYL-N-(4-HYDROXYBUTYL)NITROSAMINE, 3817-11-6, 0.3 UG IN 100 µL SALINE INJECTED INTO RIGHT THIGH 2/WK FOR 25 WK (STUDY DURATION: 25 WK), Route [Inhibitor]: INTRAMUSCULAR, Species: MOUSE, Strain/Sex: C3H/HEJ/FEMALE, Target Tissue: Type of Lesion: BLADDER: CARCINOMA, Dose [Carcinogen]: 0.05% (W/V) SOLUTION IN DRINKING WATER WITH 0.001% (W/V) TWEEN 80 FOR 25 WK, Promoter: NONE USED): 9/16 (56%), 9/16 (56%), 0%, not significant
- tumour outcome (control, treated, inhibition, significance) (Carcinogen: N-BUTYL-N-(4-HYDROXYBUTYL)NITROSAMINE, 3817-11-6, 6 UG IN 100 µL SALINE INJECTED INTO RIGHT THIGH 2/WK FOR 30 WK (STUDY DURATION: 30 WK), Route [Inhibitor]: INTRAMUSCULAR, Species: RAT, Strain/Sex: WISTAR/FEMALE, Target Tissue: Type of Lesion: BLADDER: CARCINOMA, Dose [Carcinogen]: 0.025% (W/V) SOLUTION IN DRINKING WATER WITH 0.0005% (W/V) TWEEN 80 FOR 30 WK, Promoter: NONE USED): 9/11 (82%), 6/11 (55%), 33%, not significant

Compound: COC(=O)c1cc(O)c(O)c(O)c1
- tumour outcome (control, treated, inhibition, significance) (Carcinogen: 7,12-DIMETHYLBENZ[A]ANTHRACENE, 57-97-6, 20 UMOL IN 0.4 ML ACETONE 20 MIN PRIOR TO EACH PROMOTER DOSE (STUDY DURATION: 47 WK), Route [Inhibitor]: DERMAL, Species: MOUSE, Strain/Sex: CF-1/FEMALE, Target Tissue: Type of Lesion: SKIN: CARCINOMA, Dose [Carcinogen]: 100 NMOL IN 0.2 ML ACETONE ONCE): 67%, 24%, 64%, not calculated
- tumour outcome (control, treated, inhibition, significance) (Carcinogen: 7,12-DIMETHYLBENZ[A]ANTHRACENE, 57-97-6, 20 UMOL IN 0.4 ML ACETONE 20 MIN PRIOR TO EACH PROMOTER DOSE (STUDY DURATION: 47 WK), Route [Inhibitor]: DERMAL, Species: MOUSE, Strain/Sex: CF-1/FEMALE, Target Tissue: Type of Lesion: SKIN: PAPILLOMA, Dose [Carcinogen]: 100 NMOL IN 0.2 ML ACETONE ONCE): 94%, 84%, 11%, p<0.025
